Laboratory results: patent US9308244B2, “Combination therapy using active immunotherapy” (immatics Biotechnologies GmbH, priority 2007, dated 2016)
Where two headings read alike, the source gives them in different places.

Legend:
A498 tumor cells = conditions: A498, 24 h; 13 μM sorafenib or 250 nM sunitinib; normal medium control = 100%
[1] = HPLC quantification of TKI plasma levels in mouse models; type: in vivo; conditions: oral dosing
Protocol: The proteins were precipitated with 40 μl 100% acetonitril (Acros, Geel, Belgium), centrifuged and filtered through a 0.2 μm PVDF filter. 10 μl was directly injected to the HPLC system.
The HPLC system consisted of a Binary HPLC pump (Shimadzu LC10aVP), a Shimadzu SIL-10aVP autosampler, a Shimadzu CTO-10asVP column oven and a Shimadzu SPD10aVP detector. Data acquisition and analysis was performed using the Shimadzu Class-VP 7.3 software. Chromatographic separation was carried out on a reverse phase C18 column (Reprosil Pur ODS-3μ, 60×2 mm). To protect the analytical column a guard column has been used (Reprosil Pur ODS-5μ, 10×2 mm). Eluent A consisted of water (LCMS grade, Acros, Geel, Belgium), modified by 0.1% formic acid (Merck, Darmstadt, Germany) and eluent B was 80% acetonitril (Acros, Geel, Belgium) with 0.1% formic acid (Merck, Darmstadt, Germany).
The following gradient was used: 5 min 25% eluent B, 15 min 62.5% eluent B, 6 min 80% eluent B and 5 min 80% eluent B. The temperature of the autosampler was kept at 4° C. The temperature of the column was maintained at 30° C. The detection wavelength was set at 400 nm, the injection volume was 10 μl. The column was equilibrated with the mobile phase at a flow rate 0.5 ml/min.
For Sorafenib analysis, 10 μl of 50% acetonitril (Acros, Geel, Belgium) was added to 50 serum or medium in 0.5 ml PCR tubes and mixed for 10 seconds. […]

C57BL/6 T cells = assay: Mouse mixed lymphocyte reaction (CFSE-labeled C57BL/6 spleen cells vs irradiated BALB/c splenocytes); type: cell-based; conditions: sorafenib: at concentration near the steady-state plasma level of treated patients
Protocol: CFSE-labeled spleen cells from C57BL/6 (H2-b) mice were co-cultured with irradiated splenocytes from BALB/c (H2-d) mice, resulting in the strong allogenic response and proliferation of the C57BL/6 T cells against H2-d MHC molecules. The proliferation of the T cells results in a diminished CFSE staining of the divided cells. Percentage of divided cells and their number of divisions can be analyzed by flow cytometry.
Spleen cells were prepared from 1 C57BL/6 mouse and 1 BALB/c mouse (Harlan Winkelmann GmbH, Borchen, Germany). BALB/c cells were irradiated with 33 Gy. Effectors (C57BL/6) were adjusted to 20 Mio cells/ml. A 2 mM 5(6)-Carboxyfluorescindiacetate-N-succinimidylester (CFSE, Fluka, Buchs, Switzerland) solution in PBS was freshly prepared from a 10 mM DMSO stock solution. The cell suspension was mixed 1:1 with the CFSE solution. After incubation at 37° C. for 4 min, reaction was stopped by addition of fetal calf serum (Biochrom, Berlin, Germany), and free CFSE was washed out. 2×10^5 stimulator cells (BALB/c) were plated into cavities of a 96-well round-bottom plate. 1×10^5 or 2×10^5 CFSE-labeled effector cells and tyrosine kinase inhibitors at two different concentrations were added. Appropriate positive and negative controls were included. All cultures were in 200 μl T-cell medium with 0.1% (v/v) DMSO for 5 or 7 days without further medium change. Thereafter, cells were stained with fluorescently labelled anti-CD4-PerCP and anti-CD8-FITC antibodies (both BD Biosciences, Heidelberg, Germany) and analyzed by flow cytometry.
The experiment described above was repeated with the exception that a 96-well flat-bottom plate was used for mixed lymphocyte reactions (MLRs), a syngenic control with irradiated C57BL/6 cells was included, more concentrations of inhibitors were assessed, and all groups were analyzed in triplicates.
During cultivation, half of the medium was replaced with fresh appropriate medium supplemented with final concentrations of tyrosine kinase inhibitors every day, and proliferation was analyzed at day 7 only. Additionally cells were stained for H2-Kb to clearly identify effector cells in a further dimension.

[2] = system: OVA-001 specific CD8+ T-cells; type: in vivo, C57BL/6 mice; conditions: continuous treatment, OVA-001 immunized
[3] = system: HLA-A*02+ PBMCs (CD4+ and CD8+ effector cells); conditions: HLA-mismatched target cells, seven days, increasing TKI concentrations
Protocol: Two fresh buffy coat (HLA-A*02+ and HLA-A*02−) were obtained from the Katharinenhospital Stuttgart. PBMCs were isolated by standard density gradient isolation and incubated overnight in T-cell medium (TCM) for human in vitro priming as in WP03 #4. Ca2+ and Mg2+ free PBS (Cambrex) washed HLA-A*02+ PBMCs were labeled at 1×10^7 cells/ml with 1 μM CFSE (Fluka, Buchs, Germany) at 37° C. for 4 minutes. Labeling was stopped by adding the same volume heat inactivated FCS (Invitrogen) and labeled cells were washed in TCM. Irradiation of target or feeder cells, if indicated, was performed at 33 Gy using a 1000 Elite gammacell (MDS Nordion, Ottawa, Canada). Stock solutions of sorafenib tosylate and sunitinib malate were prepared in DMSO (Merck, Darmstadt, Germany) and frozen aliquoted at −80° C. Mixed lymphocyte reactions were performed by coculturing 2×10^5 CFSE labeled effector plus 2×10^5 irradiated target cells as indicated per well of 96 well round bottom plates in 200 μl TCM in the presence of indicated concentrations of sorafenib, sunitinib or DMSO at 37° C. and 5% CO2 (day 1). On day 4, 100 μl supernatant was removed and 100 μl TCM supplemented with the original concentration of TKIs was added. […] Cells were washed, fixed in PFEA containing 1% formaldehyde (Fluka) and analyzed on a FACSCalibur (BD). […]

[4] = Protocol: Female C57BL/6 mice (20-25 g, Harlan Winkelmann GmbH, Borchen, Germany) were used for all experiments described in this section. Animals were kept in the animal facility of the Dept. of Immunology at the University of Tuebingen. Animals were cared for by trained animal keepers and health status of animals was supervised by the veterinaries of the University of Tübingen. Feeding with drug was also performed in part by the local animal keepers after special training. All animals were supplied with water and food ad libitum. The described experiments were performed according to procedure no. IM1/06 approved by the Regierungsprasidium Tuebingen.
A liquid, viscous vehicle composed of 30% (w/v) Cremophor EL (Sigma, Deisenhofen, Germany), 30% (w/v) PEG 400 (Sigma, Deisenhofen, Germany), 10% ethanol p.a., 10% glucose was used. Sunitinib and sorafenib were suspended in vehicle according to the planned dosages in a way that […] body weight had to be applied to all mice, according to approx. 50 μl of suspension. Feasible aliquots were prepared from suspensions and from vehicle and stored until use at −20° C. in the dark. Thawed substance was stored at 4° C. and used within the next three days. Animals were weighed before start of treatment and thereafter weekly. The deduced dosage was applied daily using a 1 ml syringe with gavage into the backward cavity of the mouth of the animal without anesthesia. Drug delivery into blood plasma was controlled as described in example 1.
1) Immunization under continuous treatment with tyrosine kinase inhibitors. Pretreatment phase was two weeks (see FIG. 5A). […]
3) The experimental design was identical to a) Beside negative and positive control groups, groups treated with 60 mg/kg body weight sorafenib, and 20 and 40 mg/kg body weight sunitinib were included (6 mice per group). For spleen cells, CD4, Tregs, CD8 cells, and B cells were assessed, for PBMCs CD4, CD8, B cells and Tregs were analyzed.

## CCN(CC)CCNC(=O)c1c(C)[nH]c(/C=C2\C(=O)Nc3ccc(F)cc32)c1C [Sunitinib]
A498 tumor cells
  % Expression relative to control: ADFP: 87%
  % Expression relative to control: APOL1: 62%
  % Expression relative to control: CCND1: 93%
  % Expression relative to control: GUCY1A3: 57%
  % Expression relative to control: HLA-A: 93%
  % Expression relative to control: HLA-B: 76%
  % Expression relative to control: HLA-C: 87%
  % Expression relative to control: MET: 41%
  % Expression relative to control: MMP7: 31%
  % Expression relative to control: MUC1: 54%
  % Expression relative to control: PSMB8: 87%
  % Expression relative to control: PSMB9: 132%
  % Expression relative to control: TAP1: 123%
[1]
  Bioavailability / plasma levels at the used doses: confirmed to reach plasma levels shown by others to be effective in tumor growth inhibition
C57BL/6 T cells
  Drug-related toxicity for cells in mixed lymphocyte reactions (summary): no drug-related toxicity was observed
[2]; 20 mg/kg bw, n=12
  OVA-001 specific CD8+ T-cells, mean: 3.47%
[2]; 40 mg/kg bw, n=6
  OVA-001 specific CD8+ T-cells, mean: 2.73%
[2]; 80 mg/kg bw, n=2
  OVA-001 specific CD8+ T-cells, mean: 0.51%
[3]
  Proliferation of CD8+ and CD4+ effector cells: No effect
[4]; 80 mg/kg sunitinib, experiment one
  Deaths: 2 out of 6
[4]; mouse, in vivo
  Inflamed lesions of injections sites: frequently observed
